The values below come from patent US9636335B2, “Heteroaryl compounds as 5-HT4 receptor ligands” (Suven Life Sciences Ltd, priority 2011, dated 2017).

Data set [1] concerns the target recombinant human 5-HT4 receptor (Homo sapiens (Human), UniProt Q13639). Description: Determination of EC50 values for 5-HT4 receptor (CHO cells, pCRE-Luc reporter). Format: cell-based. To be noted: CHO cells expressing human 5-HT4 receptor, luciferase activity, 4 hours incubation. On the procedure:
A stable CHO cell line expressing recombinant human 5-HT4 receptor and pCRE-Luc reporter system was used for cell-based assay. The assay offers a non-radioactive based approach to determine binding of a compound to GPCRs. In this specific assay, the level of intracellular cyclic AMP which is modulated by activation or inhibition of the receptor is measured. The recombinant cells harbor luciferase reporter gene under the control of cAMP response element.
The above cells were grown in 96 well clear bottom white plates in Hams F12 medium containing 10% fetal bovine serum (FBS). Prior to the addition of compounds or standard agonist, cells were serum starved overnight. Increasing concentrations of test compounds were added in OptiMEM medium to the cells. The incubation was continued at 37° C. in CO2 incubator for 4 hours. Medium was removed and cells were washed with phosphate buffered saline. The cells were lysed and luciferase activity was measured in a Luminometer. Luminescence units were plotted against the compound concentrations using Graphpad software.

In the next data set the test system is Male Wister rats. Description: Object recognition task model. In kind it is in vivo. The note with it: p.o., rat. On the procedure:
The cognition enhancing properties of compounds of this invention were estimated by using this model.
Male Wister rats (230-280 grams) were used as experimental animals. Four animals were housed in each cage. […] Also the rats were habituated to individual arenas for 1 hour in the absence of any objects.
One group of 12 rats received vehicle (1 mL/Kg) orally and another set of animals received compound of the formula (I) either orally or i.p., before one hour of the familiar (T1) and choice trial (T2).
The experiment was carried out in a 50×50×50 cm open field made up of acrylic. In the familiarization phase, (T1), the rats were placed individually in the open field for 3 minutes, in which two identical objects (plastic bottles, 12.5 cm height×5.5 cm diameter) covered in yellow masking tape alone (a1 and a2) were positioned in two adjacent corners, 10 cms from the walls. After 24 hours of the (T1) trial for long-term memory test, the same rats were placed in the same arena as they were placed in T1 trial. Choice phase (T2) rats were allowed to explore the open field for 3 minutes in presence of one familiar object (a3) and one novel object (b) (Amber color glass bottle, 12 cm high and 5 cm in diameter). Familiar objects presented similar textures, colors and sizes. During the T1 and T2 trial, explorations of each object (defined as sniffing, licking, chewing or having moving vibrissae whilst directing the nose towards the object at a distance of less than 1 cm) were recorded separately by stopwatch. […] T1 is the total time spent exploring the familiar objects (a1+a2). T2 is the total time spent exploring the familiar object and novel object (a3+b).

The nature of data set [2]: Rodent pharmacokinetic study. The note with it: plasma, Wistar/Male rat; for bioavailability: 10 mg/kg oral vs 5 mg/kg intravenous. Format: in vivo, Male Wister rats. On the procedure: Three to five animals were housed in each cage. […] Animals were fasted over night before oral dosing (p.o) and food pellets were allowed 2 hours post dosing, whereas intravenous dosing food and water were provided as ad libitum. Three rats were dosed with compounds of formula (I) (10 mg/kg) orally and intravenously (05 mg/kg).
At each time point blood was collected through jugular vein and immediately replenish with an equivalent volume of normal saline from freely moving rats. Collected blood was transferred into a labeled eppendr off containing 10 μL of heparin as anticoagulant. Typically blood samples were collected as following time points: Pre dose, 0.08 (only i.v.), 0.25, 0.5, 1, 2, 4, 6, 8, and 24 hours post dose (n=3). Blood was centrifuged at 4000 rpm for 10 minutes. Plasma was prepared and stored frozen at −20° C. until analysis.
Pharmacokinetic parameters Cmax, Tmax, AUCt, T1/2 and Bioavailability were calculated by non-compartmental model using standard non-compartmental model by using WinNonLin 5.0.1 or Phoenix WinNonlin 6.2 version Software package.

A short description of data set [3]: Rodent brain penetration study. To be noted: male, Wistar, rat, in vivo, po, 10 mg/kg.
Description: Three animals were housed in each cage. Animals were given water and food ad libitum throughout the experiment, and maintained on a 12 hours light/dark cycle.
Brain penetration was determined in discrete manner in rats. […] After acclimatization the rats were grouped according to the weight in each group, 3 animals were kept in individual cage and allowed free access to food and water. At each time point (0.50, 1, and 2 hours) n=3 animals were used.
The compounds of formula (I) was suitably preformulated and administered orally at (free base equivalent) 10 mg/kg. Blood samples were removed via, cardiac puncture by using isoflurane anesthesia the animals were sacrificed to collect brain tissue. […] The concentrations of the NCE compound in plasma and Brain were determined using LC-MS/MS method.
Extent of brain-plasma ratio was calculated (Cb/Cp).

For orientation: EC50 means the concentration needed to bring the measured effect to its halfway point. Usually AUC(0-t) stands for the area under the concentration-time curve up to a stated or last time point. A lower AUC(0-t) goes with less exposure. Usually Cmax stands for the peak of the concentration-time curve. What is called Tmax is the time at which the peak concentration occurs. One may read the half-life as how long it takes for the measured level to halve. High values mean slow loss, low ones fast loss.

Structures are written as SMILES. Where a name gives a salt, the structure may show the parent alone.

recombinant human 5-HT4 receptor, sequence (Q13639 whole entry): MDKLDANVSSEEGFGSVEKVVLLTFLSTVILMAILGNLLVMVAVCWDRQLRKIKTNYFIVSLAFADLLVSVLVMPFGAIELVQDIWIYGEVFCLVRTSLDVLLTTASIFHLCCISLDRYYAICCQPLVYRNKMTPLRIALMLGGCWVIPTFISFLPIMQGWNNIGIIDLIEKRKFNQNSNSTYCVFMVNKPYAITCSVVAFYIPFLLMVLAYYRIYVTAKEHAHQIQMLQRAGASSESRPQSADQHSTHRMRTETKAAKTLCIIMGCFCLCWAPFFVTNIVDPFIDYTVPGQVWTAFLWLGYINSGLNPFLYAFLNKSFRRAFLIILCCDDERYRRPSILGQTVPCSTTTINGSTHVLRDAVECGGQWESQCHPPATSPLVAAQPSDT

As to `Nc1c(Cl)cc(-c2nnc(C3CCN(C4CC4)CC3)o2)c2c1CCCO2.Nc1c(Cl)cc(-c2nnc(C3CCN(C4CC4)CC3)o2)c2c1CCCO2.O=C(O)/C=C/C(=O)O` [Example 1, 6-Chloro-8-[5-(1-cyclopropyl-piperidin-4-yl)-[1,3,4]oxadiazol-2-yl]-chroman-5-ylamine hemi fumarate], the EC50 in data set [1] amounted to 28.5 nM. In the data set with Male Wister rats (3 mg/kg), the “Exploration time mean ± S.E.M, Familiar object” value amounted to 5.08 ± 0.1 s; the “Exploration time mean ± S.E.M, Novel object” value turned out to be 13.80 ± 2.20 s; the Inference result was “Active”.

For the compound `CC(C)CCN1CCC(c2nnc(-c3cc(Cl)c(N)c4c3OCCC4)o2)CC1` [Example 9, 6-Chloro-8-{5-[1-(3-methyl-butyl)-piperidin-4-yl]-[1,3,4]oxadiazol-2-yl}-chroman-5-ylamine], the EC50 in data set [1] was found to be 2.4 nM. Moreover, in data set [2] (5 mg/kg, intravenous (bolus)), the AUC(0-t) turned out to be 836 ± 374 ng·h/mL, the concentration peaked (Cmax) at 792 ± 111 ng/mL, the Tmax came out at 0.08 h and the half-life was 1.38 ± 0.66 h. In data set [2], the bioavailability stood at 66 ± 21%. In data set [2] (10 mg/kg, oral (gavage)), the AUC(0-t) stood at 1210 ± 941 ng·h/mL, the highest level (Cmax) was 412 ± 177 ng/mL, the Tmax was determined as 0.67 ± 0.24 h and the half-life was 1.49 ± 0.64 h. Moreover, in the data set on Male Wister rats (3 mg/kg), the “Exploration time mean ± S.E.M, Familiar object” value amounted to 11.21 ± 2.18 s; the “Exploration time mean ± S.E.M, Novel object” value came out at 16.47 ± 1.18 s; the Inference result is on record as “Active”.

On to `Nc1c(Cl)cc(-c2nnc(C3CCN(CC4CCC4)CC3)o2)c2c1OCCO2` [Example 15, 6-Chloro-8-[5-(1-cyclobutylmethyl-piperidin-4-yl)-[1,3,4]oxadiazol-2-yl]-2,3-dihydro-benzo[1,4]dioxin-5-ylamine], for which the EC50 in data set [1] was determined as 6.2 nM. Moreover, in the data set with Male Wister rats (1 mg/kg), the “Exploration time mean ± S.E.M, Familiar object” value came to 12.03 ± 1.73 s; the “Exploration time mean ± S.E.M, Novel object” value is 19.14 ± 3.02 s; the Inference result is listed as “Active”.

For the compound `Nc1c(Cl)cc(-c2nnc(C3CCN(C4CCC4)CC3)o2)c2c1OCCO2` [Example 16, 6-Chloro-8-[5-(1-cyclobutyl-piperidin-4-yl)-[1,3,4]oxadiazol-2-yl]-2,3-dihydro-benzo[1,4]dioxin-5-ylamine], in data set [1], the EC50 came to 13.3 nM. Also, in the data set with Male Wister rats (10 mg/kg), the “Exploration time mean ± S.E.M, Familiar object” value was determined as 8.03 ± 1.58 s; the “Exploration time mean ± S.E.M, Novel object” value was determined as 13.94 ± 1.76 s; the Inference entry is recorded as “Active”.

Turning to `CCOC(=O)N1CCC(N2CCC(c3nnc(-c4cc(Cl)c(N)c5c4OCCC5)o3)CC2)CC1` [Example 19, 4-[5-(5-Amino-6-chloro-chroman-8-yl)-[1,3,4]oxadiazol-2-yl]-[1,4′]bipiperidinyl-1′-carboxylic acid ethyl ester], in data set [1], the EC50 turned out to be 6.8 nM. Further, in data set [2] (5 mg/kg, intravenous (bolus)), the AUC(0-t) was 2370 ± 90 ng·h/mL, the Cmax amounted to 1860 ± 115 ng/mL, the Tmax was 0.08 h and the half-life is 2.21 ± 0.23 h. In addition, the bioavailability in data set [2] was determined as 101 ± 1%. In data set [2] (10 mg/kg, oral (gavage)), the AUC(0-t) is 4814 ± 30 ng·h/mL, the Cmax is 1760 ± 264 ng/mL, the Tmax is 0.5 h and the half-life is 1.48 ± 0.18 h. For the same compound, in the data set on Male Wister rats (10 mg/kg), the “Exploration time mean ± S.E.M, Familiar object” value is 7.19 ± 0.65 s; the “Exploration time mean ± S.E.M, Novel object” value worked out at 13.21 ± 2.1 s; the Inference entry is reported as “Active”.

Regarding `Nc1c(Cl)cc(-c2nnc(C3CCN(C4CCOCC4)CC3)o2)c2c1CCCO2.O=C(O)C(=O)O` [Example 25, 6-Chloro-8-{5-[1-(tetrahydro-pyran-4-yl)-piperidin-4-yl]-[1,3,4]oxadiazol-2-yl}-chroman-5-ylamine oxalate salt], the EC50 in data set [1] turned out to be 5.7 nM. In the data set with Male Wister rats (3 mg/kg), the “Exploration time mean ± S.E.M, Familiar object” value worked out at 5.93 ± 0.87 s; the “Exploration time mean ± S.E.M, Novel object” value turned out to be 14.70 ± 2.34 s; the Inference entry is listed as “Active”.

`Nc1c(Cl)cc(-c2nnc(C3CCN(CC4CCOCC4)CC3)o2)c2c1CCCO2.O=C(O)C(=O)O` [Example 26, 6-Chloro-8-{5-[1-(tetrahydro-pyran-4-ylmethyl)-piperidin-4-yl]-[1,3,4]oxadiazol-2-yl}-chroman-5-ylamine oxalate salt]: in data set [1], the EC50 is 18 nM. Also, in the data set on Male Wister rats (3 mg/kg), the “Exploration time mean ± S.E.M, Familiar object” value worked out at 7.12 ± 1.44 s; the “Exploration time mean ± S.E.M, Novel object” value is 14.42 ± 2.22 s; the Inference result is given as “Active”.

As for `Nc1c(Cl)cc(-c2nnc(C3CCN(C4CC4)CC3)o2)c2c1CCO2` [Example 27, 5-Chloro-7-[5-(1-cyclopropyl-piperidin-4-yl)-[1,3,4]oxadiazol-2-yl]-2,3-dihydro-benzofuran-4-ylamine oxalate salt], the EC50 in data set [1] is 60 nM.

In the case of `Nc1c(Cl)cc(-c2nnc(C3CCN(C4CCC4)CC3)o2)c2c1CCO2` [Example 28, 5-Chloro-7-[5-(1-cyclobutyl-piperidin-4-yl)-[1,3,4]oxadiazol-2-yl]-2,3-dihydro-benzofuran-4-ylamine oxalate salt], the EC50 in data set [1] was 10 nM.

In the case of `Nc1c(Cl)cc(-c2nnc(C3CCN(C4CC4)CC3)o2)c2c1OCCO2` [Example 29, 6-Chloro-8-[5-(1-cyclopropyl-piperidin-4-yl)-[1,3,4]oxadiazol-2-yl]-2,3-dihydro-benzo[1,4]dioxin-5-ylamine oxalate salt], the EC50 in data set [1] was 21.5 nM.

As for `Nc1c(Cl)cc(-c2nnc(C3CCN(C4CCOCC4)CC3)o2)c2c1OCCO2` [Example 30, 6-Chloro-8-{5-[1-(tetrahydro-pyran-4-yl)-piperidin-4-yl]-[1,3,4]oxadiazol-2-yl}-2,3-dihydro-benzo[1,4]dioxin-5-ylamine oxalate salt], the EC50 in data set [1] was 7.3 nM.

Consider `COCCCN1CCC(c2nnc(-c3cc(Cl)c(N)c4c3OCCO4)o2)CC1` [Example 31, 6-Chloro-8-{5-[1-(3-methoxy-propyl)-piperidin-4-yl]-[1,3,4]oxadiazol-2-yl}-2,3-dihydro-benzo[1,4]dioxin-5-ylamine oxalate salt], for which, in data set [1], the EC50 amounted to 16.9 nM.

With `Nc1c(Cl)cc(-c2nnc(C3CCN(CC4CCOCC4)CC3)o2)c2c1CCO2` [Example 33, 5-Chloro-7-{5-[1-(tetrahydro-pyran-4-ylmethyl)-piperidin-4-yl]-[1,3,4]oxadiazol-2-yl}-2,3-dihydro-benzofuran-4-ylamine oxalate], in data set [1], the EC50 was determined as 21 nM.

On to `CCOC(=O)N1CCC(N2CCC(c3nnc(-c4cc(Cl)c(N)c5c4OCC5)o3)CC2)CC1` [Example 34, 4-[5-(4-Amino-5-chloro-2,3-dihydro-benzofuran-7-yl)-[1,3,4]oxadiazol-2-yl]-[1,4′]bipiperidinyl-1′-carboxylic acid ethyl ester oxalate], for which, in data set [1], the EC50 was 5 nM.

As for `CC(C)n1nc(-c2nnc(C3CCN(C4CCC4)CC3)o2)c2ccccc21` [Example 37, 3-[5-(1-Cyclobutyl-piperidin-4-yl)-[1,3,4]oxadiazol-2-yl]-1-isopropyl-1H-indazole], in data set [3], the Kp stood at 5.68 ± 1.74.

`CC(C)n1nc(-c2nnc(C3CCN(C4CCOCC4)CC3)o2)c2ccccc21` [Example 48, 1-Isopropyl-3-{5-[1-(tetrahydro-pyran-4-yl)-piperidin-4-yl]-[1,3,4]oxadiazol-2-yl}-1H-indazole oxalate salt] returned a Kp in data set [3] of 2.55 ± 0.32.

As for `CC(C)n1nc(-c2nnc(CCN3CCCCC3)o2)c2ccccc21` [Example 49, 1-Isopropyl-3-[5-(2-piperidin-1-yl-ethyl)-[1,3,4]oxadiazol-2-yl]-1H-indazole oxalate], the EC50 in data set [1] came to 181 nM.
